Measurements: article PMC3849221 (NeuroImage, 2013)
Values joined by “and” are separate entries in the source; they are usually repeats but may differ in a detail not shown here. Equal values may be shown once. “Also recorded” adds a separate entry of the source.

Assays:
CB1 receptors = CB1 receptors (Macaca mulatta, UniProt Q71SP5); test: Monkey brain PET with 11C-SD5024, baseline and rimonabant pre-blocked scans; conditions: for VT Baseline: one value per monkey; for VT Preblocked: rimonabant 3 mg/kg i.v.
Sequence of CB1 receptors (Q71SP5 whole entry): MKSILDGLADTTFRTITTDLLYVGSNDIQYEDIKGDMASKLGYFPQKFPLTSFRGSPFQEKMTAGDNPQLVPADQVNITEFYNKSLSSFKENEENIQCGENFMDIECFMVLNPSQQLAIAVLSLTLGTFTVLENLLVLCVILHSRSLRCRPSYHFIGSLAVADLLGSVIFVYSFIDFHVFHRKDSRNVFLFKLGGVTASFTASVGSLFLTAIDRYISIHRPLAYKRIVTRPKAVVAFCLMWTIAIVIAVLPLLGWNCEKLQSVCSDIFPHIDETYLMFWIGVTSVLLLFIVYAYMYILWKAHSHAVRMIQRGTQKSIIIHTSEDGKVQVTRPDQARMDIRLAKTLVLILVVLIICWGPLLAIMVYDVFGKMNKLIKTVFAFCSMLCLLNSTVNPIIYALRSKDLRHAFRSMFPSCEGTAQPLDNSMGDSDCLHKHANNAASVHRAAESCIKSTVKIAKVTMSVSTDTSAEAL

[1] = Measurement of 11C-SD5024 in human arterial plasma; assay type: in vivo
[2] = Pharmacological effects of injected 11C-SD5024 in healthy subjects; assay type: in vivo; conditions: human, injected mass dose 242±47 pmol/kg, n=7
CB1 receptor = CB1 receptor (Homo sapiens, UniProt P21554); test: Human brain PET with 11C-SD5024, compartmental modeling; assay type: in vivo; conditions: for VT / K1 / k2 / vB (%): one-tissue compartment model, mean±SD; for VT: 120 min; for K1 / k2 / vB (%): seven subjects; for Intersubject Variability of VT (SD/mean): n=7, 120min
Sequence of CB1 receptor (P21554 whole entry): as the sequence (Q71SP5 whole entry) above

Lipophilicity LogD7.4 = assay type: physicochemical; conditions: n-octanol / 0.15 M sodium phosphate buffer pH 7.4, room temperature, 6 measurements
[3] = monkey striatum, calculated from caudate and putamen (Table 2)

## N#[11C]c1ccc(S(=O)(=O)NC(=N)N2CC(c3ccccc3)C(c3ccc(Cl)cc3)=N2)cc1 (stereo not drawn) [^11C-SD5024, [cyano-^11C](−)-3-(4-chlorophenyl)-N-[(4-cyanophenyl)sulfonyl]-4-phenyl-4,5-dihydro-1H-pyrazole-1-carboxamidine]
CB1 receptors; monkey brain, baseline vs receptor blockade with rimonabant 3 mg/kg i.v.
  specific binding as proportion of VT: ~ 80%
CB1 receptors; monkey striatum, (VT baseline – VT preblock)/VT baseline
  Specific binding (%): 82%
CB1 receptors; [3]
  VT (striatum) Baseline: 2.36 mL·cm^−3
  VT (striatum) Preblocked: 0.44 mL·cm^−3
CB1 receptors; monkey, Caudate, (VT baseline – VT preblocked)/VT baseline
  Specific binding (%): 82% and 79%
CB1 receptors; monkey, Caudate
  VT Baseline: 1.62 mL · cm^−3 and 2.79 mL · cm^−3
  VT Preblocked: 0.30 mL · cm^−3 and 0.60 mL · cm^−3
CB1 receptors; monkey, Cerebellum, (VT baseline – VT preblocked)/VT baseline
  Specific binding (%): 79% and 78%
CB1 receptors; monkey, Cerebellum
  VT Baseline: 1.27 mL · cm^−3 and 2.34 mL · cm^−3
  VT Preblocked: 0.27 mL · cm^−3 and 0.51 mL · cm^−3
CB1 receptors; monkey, Cingulate, (VT baseline – VT preblocked)/VT baseline
  Specific binding (%): 84% and 82%
CB1 receptors; monkey, Cingulate
  VT Baseline: 1.74 mL · cm^−3 and 3.58 mL · cm^−3
CB1 receptors; monkey, Frontal Ctx, (VT baseline – VT preblocked)/VT baseline
  Specific binding (%): 79% and 72%
CB1 receptors; monkey, Frontal Ctx
  VT Baseline: 1.77 mL · cm^−3 and 3.13 mL · cm^−3
CB1 receptors; monkey, Lateral Temporal Ctx, (VT baseline – VT preblocked)/VT baseline
  Specific binding (%): 81% and 77%
CB1 receptors; monkey, Lateral Temporal Ctx
  VT Baseline: 1.32 mL · cm^−3 and 2.52 mL · cm^−3
CB1 receptors; monkey, Medial Temporal Ctx, (VT baseline – VT preblocked)/VT baseline
  Specific binding (%): 71%
CB1 receptors; monkey, Medial Temporal Ctx
  VT Baseline: 1.33 mL · cm^−3 and 2.54 mL · cm^−3
  VT Preblocked: 0.39 mL · cm^−3 and 0.75 mL · cm^−3
CB1 receptors; monkey, Occipital Ctx, (VT baseline – VT preblocked)/VT baseline
  Specific binding (%): 78% and 71%
CB1 receptors; monkey, Occipital Ctx
  VT Baseline: 1.07 mL · cm^−3 and 2.00 mL · cm^−3
CB1 receptors; monkey, Parietal Ctx, (VT baseline – VT preblocked)/VT baseline
  Specific binding (%): 81% and 74%
CB1 receptors; monkey, Parietal Ctx
  VT Baseline: 1.39 mL · cm^−3 and 2.70 mL · cm^−3
CB1 receptors; monkey, Putamen, (VT baseline – VT preblocked)/VT baseline
  Specific binding (%): 83% and 81%
CB1 receptors; monkey, Putamen
  VT Baseline: 1.84 mL · cm^−3 and 3.04 mL · cm^−3
  VT Preblocked: 0.31 mL · cm^−3 and 0.56 mL · cm^−3
CB1 receptors; monkey, Thalamus, (VT baseline – VT preblocked)/VT baseline
  Specific binding (%): 64% and 68%
CB1 receptors; monkey, Thalamus
  VT Baseline: 0.83 mL · cm^−3 and 1.85 mL · cm^−3
  VT Preblocked: 0.30 mL · cm^−3 and 0.59 mL · cm^−3
CB1 receptors; monkey, baseline
  time of peak brain activity: ~ 60 min
CB1 receptors; monkey, baseline, after i.v. injection
  brain activity (peak): ~ 2 SUV
CB1 receptors; monkey, one-compartment model
  average SE of VT across brain regions (identifiability): 3.8%
[1]
  free fraction in plasma (fP): too low to measure accurately
  time of peak concentration in arterial plasma: 75 s
[1]; after i.v. injection
  peak concentration in arterial plasma: 24±8 SUV
[1]; at 75 min
  fraction of parent as percentage of total plasma radioactivity: 51±13%
[1]; from 30 to 120 min
  plasma concentrations of 11C-SD5024 relative to 11C-MePPEP: five-times
[2]
  pharmacological effects (subjective reports, vital signs, laboratory tests): no pharmacological effects
CB1 receptor
  decrease of brain radioactivity from peak time (40 min) to end of scan (120 min): 20%
  time of peak brain activity: ~ 40 min
CB1 receptor; Caudate, n=7
  VT: 2.31±0.55 mL·cm^−3
CB1 receptor; Caudate
  K1: 0.028±0.005 mL/cm^3/min
  k2: 0.013 ± 0.003 min⁻¹
  vB (%): 3.7±0.67%
CB1 receptor; Cerebellum, n=7
  VT: 1.93±0.38 mL·cm^−3
CB1 receptor; Cerebellum
  K1: 0.030±0.006 mL/cm^3/min
  k2: 0.016 ± 0.003 min⁻¹
  vB (%): 6.4±0.69%
CB1 receptor; Cingulate, n=7
  VT: 2.79±0.58 mL·cm^−3
CB1 receptor; Cingulate
  K1: 0.029±0.006 mL/cm^3/min
  k2: 0.011 ± 0.002 min⁻¹
  vB (%): 5.0±0.58%
CB1 receptor; Frontal
  Intersubject Variability of VT (SD/mean): 21%
  K1: 0.032±0.006 mL/cm^3/min
  k2: 0.013 ± 0.003 min⁻¹
  vB (%): 4.4±0.66%
CB1 receptor; Frontal, n=7
  VT: 2.57±0.54 mL·cm^−3
CB1 receptor; Lateral temporal, n=7
  VT: 2.66±0.57 mL·cm^−3
CB1 receptor; Lateral temporal
  K1: 0.032±0.007 mL/cm^3/min
  k2: 0.012 ± 0.002 min⁻¹
  vB (%): 5.2±0.64%
CB1 receptor; Medial temporal, n=7
  VT: 2.48±0.65 mL·cm^−3
CB1 receptor; Medial temporal
  K1: 0.023±0.005 mL/cm^3/min
  k2: 0.010 ± 0.002 min⁻¹
  vB (%): 5.3±0.58%
CB1 receptor; Occipital, n=7
  VT: 2.00±0.38 mL·cm^−3
CB1 receptor; Occipital
  K1: 0.035±0.007 mL/cm^3/min
  k2: 0.018 ± 0.003 min⁻¹
  vB (%): 5.9±0.49%
CB1 receptor; Parietal, n=7
  VT: 2.44±0.50 mL·cm^−3
CB1 receptor; Parietal
  K1: 0.034±0.006 mL/cm^3/min
  k2: 0.014 ± 0.003 min⁻¹
  vB (%): 4.8±0.50%
CB1 receptor; Putamen
  Intersubject Variability of VT (SD/mean): 22%
  K1: 0.038±0.008 mL/cm^3/min
  k2: 0.012 ± 0.003 min⁻¹
  vB (%): 4.0±0.79%
CB1 receptor; Putamen, n=7
  VT: 3.16±0.70 mL·cm^−3
CB1 receptor; Table 5
  peak brain uptake of 11C-SD5024 higher than that of 11C-OMAR by: about 40%
  peak brain uptake of 11C-SD5024 lower than that of 11C-MePPEP by: about 20%
  peak brain uptake of 11C-SD5024 relative to 11C-OMAR: ~ 1.4 times
CB1 receptor; Table 6
  VT of 11C-SD5024 relative to 11C-OMAR: about twice higher; also recorded: about two-fold greater; also recorded: about twice greater
CB1 receptor; Thalamus
  Intersubject Variability of VT (SD/mean): 24%
  K1: 0.029±0.006 mL/cm^3/min
  k2: 0.017 ± 0.004 min⁻¹
  vB (%): 4.6±0.49%
CB1 receptor; Thalamus, n=7
  VT: 1.71±0.41 mL·cm^−3
CB1 receptor; from time stability of VT
  accumulation of radiometabolites in brain: do not significantly accumulate in brain
CB1 receptor; n=7
  intersubject variability for VT (Table 6): ~ 24%
  intersubject variability of VT, average value: 22%
CB1 receptor; one-compartment model
  average SE of VT across brain regions (identifiability): 1.8%
CB1 receptor; truncation of the 120-min scan
  scan duration adequate to measure VT / CB1 receptors: 80 min
Lipophilicity LogD7.4
  LogD7.4: 3.79±0.09
